Reference: PubChem BioAssay (NCI)
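Values below derive from 48-hour exposures of cells grown in 96-well plates, with endpoints linearly interpolated between the two concentrations bracketing the appropriate inhibition level. TGI denotes the concentration required for complete inhibition of growth.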

Columns and labels:
Experiment in all cases: inhibition of tumour cell growth, NCI panel, 48 h
U251 CNS = tested on: U251 CNS
CCRF-CEM leukemia = tested on: CCRF-CEM leukemia
IGROV1 ovarian = tested on: IGROV1 ovarian
MALME-3M melanoma = tested on: MALME-3M melanoma
SNB-19 CNS = tested on: SNB-19 CNS
SK-OV-3 ovarian = tested on: SK-OV-3 ovarian
SF-539 CNS = tested on: SF-539 CNS
OVCAR-3 ovarian = tested on: OVCAR-3 ovarian
SN12C renal = tested on: SN12C renal
RXF-631 renal = tested on: RXF-631 renal
DMS 114 small cell lung = tested on: DMS 114 small cell lung
RXF 393 renal = tested on: RXF 393 renal
UACC-62 melanoma = tested on: UACC-62 melanoma
NCI-H23 lung = tested on: NCI-H23 lung
SR leukemia = tested on: SR leukemia
OVCAR-4 ovarian = tested on: OVCAR-4 ovarian
786-0 renal = tested on: 786-0 renal
M19-MEL melanoma = tested on: M19-MEL melanoma
DLD-1 colon = tested on: DLD-1 colon
NCI-H460 lung = tested on: NCI-H460 lung
LXFL 529 NSCLC = tested on: LXFL 529 NSCLC
KM12 colon = tested on: KM12 colon
RPMI-8226 leukemia = tested on: RPMI-8226 leukemia
SW-620 colon = tested on: SW-620 colon
SNB-75 CNS = tested on: SNB-75 CNS
HCC-2998 colon = tested on: HCC-2998 colon
SK-MEL-5 melanoma = tested on: SK-MEL-5 melanoma
XF 498 CNS = tested on: XF 498 CNS
SF-268 CNS = tested on: SF-268 CNS
HOP-62 NSCLC = tested on: HOP-62 NSCLC
SF-295 CNS = tested on: SF-295 CNS
HCT-116 colon = tested on: HCT-116 colon
EKVX NSCLC = tested on: EKVX NSCLC
HT29 colon = tested on: HT29 colon
M14 melanoma = tested on: M14 melanoma
UACC-257 melanoma = tested on: UACC-257 melanoma
ACHN renal = tested on: ACHN renal
OVCAR-8 ovarian = tested on: OVCAR-8 ovarian
TK-10 renal = tested on: TK-10 renal
NCI-H522 lung = tested on: NCI-H522 lung
MOLT-4 leukemia = tested on: MOLT-4 leukemia
SNB-78 CNS = tested on: SNB-78 CNS
A549 NSCLC = tested on: A549 NSCLC
A498 renal = tested on: A498 renal
K-562 leukemia = tested on: K-562 leukemia
LOX IMVI melanoma = tested on: LOX IMVI melanoma
UO-31 renal = tested on: UO-31 renal
CAKI-1 renal = tested on: CAKI-1 renal
HL-60(TB) leukemia = tested on: HL-60(TB) leukemia
HOP-18 NSCLC = tested on: HOP-18 NSCLC
COLO 205 colon = tested on: COLO 205 colon
HOP-92 NSCLC = tested on: HOP-92 NSCLC
NCI-H226 lung = tested on: NCI-H226 lung
KM20L2 colon = tested on: KM20L2 colon
SK-MEL-28 melanoma = tested on: SK-MEL-28 melanoma
DMS 273 small cell lung = tested on: DMS 273 small cell lung
HCT-15 colon = tested on: HCT-15 colon
SK-MEL-2 melanoma = tested on: SK-MEL-2 melanoma
OVCAR-5 ovarian = tested on: OVCAR-5 ovarian

Q: With `Cc1c(OC(C)C(=O)O)ccc2c(-c3ccccc3)cc(=O)oc12` (stereo not given) as the molecule, how does the TGI (U251 CNS) read?
A: > 100 µM

Q: And the TGI (CCRF-CEM leukemia)?
A: > 100 µM

Q: What about the TGI (IGROV1 ovarian) of the same molecule?
A: > 100 µM

Q: What about the TGI (MALME-3M melanoma) of the same molecule?
A: > 100 µM

Q: And the TGI (SNB-19 CNS)?
A: > 100 µM

Q: And the TGI (SK-OV-3 ovarian)?
A: > 100 µM

Q: What about the TGI (SF-539 CNS) of the same molecule?
A: > 100 µM

Q: What about the TGI (OVCAR-3 ovarian) of the same molecule?
A: > 100 µM

Q: What about the TGI (SN12C renal) of the same molecule?
A: > 100 µM

Q: What about the TGI (RXF-631 renal) of the same molecule?
A: > 100 µM

Q: And the TGI (DMS 114 small cell lung)?
A: > 100 µM

Q: What about the TGI (RXF 393 renal) of the same molecule?
A: > 100 µM

Q: What about the TGI (UACC-62 melanoma) of the same molecule?
A: > 100 µM

Q: And the TGI (NCI-H23 lung)?
A: > 100 µM

Q: And the TGI (SR leukemia)?
A: > 100 µM

Q: What about the TGI (OVCAR-4 ovarian) of the same molecule?
A: > 100 µM

Q: What about the TGI (786-0 renal) of the same molecule?
A: > 100 µM

Q: What about the TGI (M19-MEL melanoma) of the same molecule?
A: > 100 µM

Q: What about the TGI (DLD-1 colon) of the same molecule?
A: > 100 µM

Q: What about the TGI (NCI-H460 lung) of the same molecule?
A: > 100 µM

Q: What about the TGI (LXFL 529 NSCLC) of the same molecule?
A: > 100 µM

Q: And the TGI (KM12 colon)?
A: > 100 µM

Q: What about the TGI (RPMI-8226 leukemia) of the same molecule?
A: > 100 µM

Q: And the TGI (SW-620 colon)?
A: > 100 µM

Q: What about the TGI (SNB-75 CNS) of the same molecule?
A: > 100 µM

Q: And the TGI (HCC-2998 colon)?
A: > 100 µM

Q: And the TGI (SK-MEL-5 melanoma)?
A: > 100 µM

Q: What about the TGI (XF 498 CNS) of the same molecule?
A: > 100 µM

Q: What about the TGI (SF-268 CNS) of the same molecule?
A: > 100 µM

Q: What about the TGI (HOP-62 NSCLC) of the same molecule?
A: > 100 µM

Q: What about the TGI (SF-295 CNS) of the same molecule?
A: > 100 µM

Q: And the TGI (HCT-116 colon)?
A: > 100 µM

Q: And the TGI (EKVX NSCLC)?
A: > 100 µM

Q: What about the TGI (HT29 colon) of the same molecule?
A: > 100 µM

Q: And the TGI (M14 melanoma)?
A: > 100 µM

Q: And the TGI (UACC-257 melanoma)?
A: > 100 µM

Q: What about the TGI (ACHN renal) of the same molecule?
A: > 100 µM

Q: What about the TGI (OVCAR-8 ovarian) of the same molecule?
A: > 100 µM

Q: And the TGI (TK-10 renal)?
A: > 100 µM

Q: What about the TGI (NCI-H522 lung) of the same molecule?
A: > 100 µM

Q: What about the TGI (MOLT-4 leukemia) of the same molecule?
A: > 100 µM

Q: What about the TGI (SNB-78 CNS) of the same molecule?
A: > 100 µM

Q: What about the TGI (A549 NSCLC) of the same molecule?
A: > 100 µM

Q: And the TGI (A498 renal)?
A: > 100 µM

Q: What about the TGI (K-562 leukemia) of the same molecule?
A: > 100 µM

Q: What about the TGI (LOX IMVI melanoma) of the same molecule?
A: > 100 µM

Q: What about the TGI (UO-31 renal) of the same molecule?
A: > 100 µM

Q: And the TGI (CAKI-1 renal)?
A: > 100 µM

Q: What about the TGI (HL-60(TB) leukemia) of the same molecule?
A: > 100 µM

Q: And the TGI (HOP-18 NSCLC)?
A: > 100 µM

Q: What about the TGI (COLO 205 colon) of the same molecule?
A: > 100 µM

Q: What about the TGI (HOP-92 NSCLC) of the same molecule?
A: > 100 µM

Q: And the TGI (NCI-H226 lung)?
A: > 100 µM

Q: What about the TGI (KM20L2 colon) of the same molecule?
A: > 100 µM

Q: And the TGI (SK-MEL-28 melanoma)?
A: > 100 µM

Q: With `N#CC(N)=Nc1ccccc1` as the molecule, how does the TGI (U251 CNS) read?
A: > 100 µM

Q: And the TGI (CCRF-CEM leukemia)?
A: > 100 µM

Q: What about the TGI (IGROV1 ovarian) of the same molecule?
A: > 100 µM

Q: What about the TGI (MALME-3M melanoma) of the same molecule?
A: > 100 µM

Q: What about the TGI (SNB-19 CNS) of the same molecule?
A: > 100 µM

Q: What about the TGI (SK-OV-3 ovarian) of the same molecule?
A: > 100 µM

Q: And the TGI (SF-539 CNS)?
A: > 100 µM

Q: And the TGI (OVCAR-3 ovarian)?
A: > 100 µM

Q: What about the TGI (SN12C renal) of the same molecule?
A: > 100 µM

Q: And the TGI (RXF-631 renal)?
A: > 100 µM

Q: What about the TGI (DMS 114 small cell lung) of the same molecule?
A: 31.1 µM

Q: What about the TGI (UACC-62 melanoma) of the same molecule?
A: > 100 µM

Q: What about the TGI (NCI-H23 lung) of the same molecule?
A: > 100 µM

Q: What about the TGI (SR leukemia) of the same molecule?
A: > 100 µM

Q: What about the TGI (OVCAR-4 ovarian) of the same molecule?
A: > 100 µM

Q: And the TGI (786-0 renal)?
A: > 100 µM

Q: What about the TGI (M19-MEL melanoma) of the same molecule?
A: > 100 µM

Q: What about the TGI (DLD-1 colon) of the same molecule?
A: > 100 µM

Q: And the TGI (NCI-H460 lung)?
A: > 100 µM

Q: What about the TGI (LXFL 529 NSCLC) of the same molecule?
A: > 100 µM

Q: And the TGI (KM12 colon)?
A: > 100 µM

Q: And the TGI (RPMI-8226 leukemia)?
A: > 100 µM

Q: And the TGI (SW-620 colon)?
A: > 100 µM

Q: And the TGI (SNB-75 CNS)?
A: > 100 µM

Q: What about the TGI (HCC-2998 colon) of the same molecule?
A: > 100 µM

Q: And the TGI (DMS 273 small cell lung)?
A: > 100 µM

Q: And the TGI (HCT-15 colon)?
A: > 100 µM

Q: And the TGI (SK-MEL-5 melanoma)?
A: > 100 µM

Q: And the TGI (SF-268 CNS)?
A: > 100 µM

Q: What about the TGI (HOP-62 NSCLC) of the same molecule?
A: > 100 µM

Q: And the TGI (SF-295 CNS)?
A: > 100 µM

Q: What about the TGI (SK-MEL-2 melanoma) of the same molecule?
A: > 100 µM

Q: What about the TGI (HCT-116 colon) of the same molecule?
A: > 100 µM

Q: What about the TGI (EKVX NSCLC) of the same molecule?
A: > 100 µM

Q: What about the TGI (HT29 colon) of the same molecule?
A: > 100 µM

Q: What about the TGI (OVCAR-5 ovarian) of the same molecule?
A: > 100 µM

Q: And the TGI (M14 melanoma)?
A: > 100 µM

Q: And the TGI (ACHN renal)?
A: > 100 µM

Q: What about the TGI (OVCAR-8 ovarian) of the same molecule?
A: > 100 µM

Q: And the TGI (TK-10 renal)?
A: > 100 µM

Q: What about the TGI (NCI-H522 lung) of the same molecule?
A: > 100 µM

Q: What about the TGI (MOLT-4 leukemia) of the same molecule?
A: > 100 µM

Q: And the TGI (A549 NSCLC)?
A: > 100 µM

Q: And the TGI (A498 renal)?
A: > 100 µM

Q: What about the TGI (K-562 leukemia) of the same molecule?
A: > 100 µM

Q: And the TGI (LOX IMVI melanoma)?
A: > 100 µM

Q: What about the TGI (UO-31 renal) of the same molecule?
A: > 100 µM

Q: What about the TGI (CAKI-1 renal) of the same molecule?
A: > 100 µM

Q: What about the TGI (HL-60(TB) leukemia) of the same molecule?
A: > 100 µM

Q: What about the TGI (HOP-18 NSCLC) of the same molecule?
A: > 100 µM

Q: What about the TGI (COLO 205 colon) of the same molecule?
A: > 100 µM

Q: What about the TGI (HOP-92 NSCLC) of the same molecule?
A: > 100 µM

Q: And the TGI (NCI-H226 lung)?
A: > 100 µM

Q: And the TGI (KM20L2 colon)?
A: > 100 µM

Q: What about the TGI (SK-MEL-28 melanoma) of the same molecule?
A: > 100 µM
